Where a name gives a salt, the structure may show the parent alone.
Target: T1, purified DDK (Homo sapiens, UniProt O00311)
T1 construct: His6-Smt3 (SUMO) (N, cleaved yes); made in house; host or cells: E. coli BL21-RIPL (pKT37, pETDuet-1 vector)
Test: DDK thermal stability shift assay (TSA)
Assay type: binding
Settings: library screen, 10 µM compound

T1 sequence (O00311 whole entry): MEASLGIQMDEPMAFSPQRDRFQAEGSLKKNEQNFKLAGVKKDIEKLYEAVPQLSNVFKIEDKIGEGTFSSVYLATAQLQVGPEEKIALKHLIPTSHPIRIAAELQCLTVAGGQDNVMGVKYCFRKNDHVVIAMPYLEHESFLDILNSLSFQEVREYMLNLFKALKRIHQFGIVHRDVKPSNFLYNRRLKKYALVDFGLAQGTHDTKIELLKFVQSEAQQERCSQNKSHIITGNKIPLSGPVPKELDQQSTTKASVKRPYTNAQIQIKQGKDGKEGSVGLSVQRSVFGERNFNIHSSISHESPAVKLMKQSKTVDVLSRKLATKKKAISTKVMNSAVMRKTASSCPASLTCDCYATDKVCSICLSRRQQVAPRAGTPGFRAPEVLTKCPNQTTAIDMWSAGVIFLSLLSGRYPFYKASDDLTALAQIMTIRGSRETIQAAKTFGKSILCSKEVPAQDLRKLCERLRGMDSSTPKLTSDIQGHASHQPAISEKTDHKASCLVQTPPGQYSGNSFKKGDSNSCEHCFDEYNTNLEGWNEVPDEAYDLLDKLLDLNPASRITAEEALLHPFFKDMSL
T1 sequence (Q9UBU7 341-674 partner limits assumed): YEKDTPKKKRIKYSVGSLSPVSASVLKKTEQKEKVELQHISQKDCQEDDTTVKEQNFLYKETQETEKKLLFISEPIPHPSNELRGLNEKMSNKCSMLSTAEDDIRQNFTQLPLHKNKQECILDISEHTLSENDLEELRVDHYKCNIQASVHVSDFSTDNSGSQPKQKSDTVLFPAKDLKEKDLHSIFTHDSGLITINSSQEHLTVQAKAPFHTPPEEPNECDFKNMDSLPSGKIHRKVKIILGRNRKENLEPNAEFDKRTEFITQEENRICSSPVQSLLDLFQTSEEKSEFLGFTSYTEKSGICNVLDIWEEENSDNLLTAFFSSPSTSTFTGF

Compound	ΔTm at 10 µM
CNC1CC2OC(C)(C1OC)n1c3ccccc3c3c4c(c5c6ccccc6n2c5c31)C(=O)NC4O (centres unmarked) [UCN-01, 7-Hydroxystaurosporine]	2.1 °C

Same assay, conditions: library screen, 20 µM compound

Compound	ΔTm	ΔTm at 20 µM
Cdk1/2 Inhibitor III	1.1 °C	
COc1cc2ncnc(Nc3cccc(O)c3)c2cc1OC [WHI-P180, Hydrochloride]	0 °C	
C/C(O)=C(\C#N)C(=O)Nc1cc(Br)ccc1Br [LFM-A13]	0 °C	
O=S(=O)(c1cccc2cnccc12)N1CCCNCC1 [Fasudil hydrochloride]		0.9 °C
O=C(Nc1ccc(-c2cn[nH]c2)cc1)C1COc2ccccc2O1 (centres unmarked) [Rho Kinase Inhibitor V]	1.5 °C	
COc1ccc2c(c1)/C(=C/c1cnc[nH]1)C(=O)N2 [SU9516]		0 °C
O=c1cc(N2CCOCC2)oc2c(-c3ccccc3)cccc12 [LY 294002]		0.8 °C
COc1ccc2nc3c(c(C)nn3C)c(NCCOCCO)c2c1 [Ras/Rac TransformaEon Blocker, SCH 51344]	0.5 °C	
CC[C@H](CO)Nc1nc(NCc2ccccc2O)c2ncn(C(C)C)c2n1 [Olomoucine II]		0.2 °C
Cc1ncc2ccccc2c1C#N [4-Cyano-3-methylisoquinoline]	0 °C	
O=c1cc(-c2cccc3c2Sc2ccccc2S3)oc(N2CCOCC2)c1 [ATM Kinase Inhibitor]	1.1 °C	
CN(C)S(=O)(=O)c1ccc2c(c1)/C(=C/c1cc3c([nH]1)CCCC3)C(=O)N2 [SU6656]		0.1 °C
CCN(CC)CCCCN1c2ccccc2Oc2ccc(Cl)cc21.Cl [10-DEBC hydrochloride]	0.8 °C	
Cc1nc(N)sc1-c1ccnc(Nc2cccc([N+](=O)[O-])c2)n1 [Cdk2/9 Inhibitor]	0.3 °C	
CCN(CC)CCCCN1c2ccccc2Oc2ccc(Cl)cc21 [Akt Inhibitor X]		0.3 °C
c1ccc(-c2cnc(Nc3ccc(OCCN4CCCC4)cc3)s2)cc1 [Flt-3 Inhibitor III]	0.3 °C	
Cc1[nH]c(/C=C2\C(=O)Nc3ccc(S(=O)(=O)N(C)c4cccc(Cl)c4)cc32)c(C)c1C(=O)N1CCN(C)CC1 [Met Kinase Inhibitor]	0.2 °C	
Cn1cnc2cc3c(Nc4cccc(Br)c4)ncnc3cc21 [BPIQ-I]	0.2 °C	
NC(=O)c1ccc(-c2nc(-c3ccc4c(c3)OCO4)c(-c3ccccn3)[nH]2)cc1 [SB 431542]		0 °C
Cc1ccc(S(=O)(=O)/C=C/C#N)cc1 [BAY 11-7082]	0 °C	
O=C(Nc1ccncc1)Nc1c(Cl)cc(Cl)cc1Cl [Rho Kinase Inhibitor II]	0 °C	
Cc1ccc(NC(=O)c2cccc(N(C)C)c2)cc1NC(=O)c1ccc(O)cc1 [ZM 336372]	0.5 °C	
Cl.Cl.NCCNc1ncc(C(N)=O)c(Nc2cccc(C(F)(F)F)c2)n1 [Syk Inhibitor II]	1.2 °C	
O=C1N=C(NCc2cccs2)SC1=Cc1ccc2ncccc2c1 [Cdk1 Inhibitor IV, RO-3306, 5-(6-Quinolinylmethylene)-2-[(2-thienylmethyl)amino]-4(5H)-thiazolone]	2.2 °C	
O=C1NC(=O)c2cc(Nc3ccc(F)cc3)c(Nc3ccc(F)cc3)cc21 [CGP 53353]		0.4 °C

Compound	ΔTm	ΔTm at 20 µM
CC(C)(C)c1cc(C=C(C#N)C#N)cc(Br)c1O [AG 1024]	1.2 °C	
O=C(c1ccc(Nc2nccc(-c3cc4ccccc4s3)n2)cc1)N1CCC(N2CCCC2)CC1 [IKK Inhibitor VII]	1.7 °C	
Cl.Cl.NC(N)=NCCNS(=O)(=O)c1cccc2cnccc12 [HA 1004, Dihydrochloride]	0 °C	
Nc1ccc2ncnc(NCCc3ccc(Oc4ccccc4)cc3)c2c1 [NF-kB Acjvajon Inhibitor]	0.3 °C	
Ro-31-8220	1.4 °C	
CCN(CC)CCNC(=O)c1c(C)[nH]c(/C=C2\C(=O)Nc3ccc(Cl)cc32)c1C [SU11652]		1.8 °C
O=C(O)/C=C/c1cc(Br)c(Br)c(Br)c1Br [Casein Kinase II Inhibitor III, TBCA]	32 °C	
Oc1ccc(-c2nc(-c3ccncc3)c(-c3ccc(F)cc3)[nH]2)cc1 [SB 202190]		0.6 °C
COc1cc2nccc(Oc3ccc(NC(=O)Nc4ccc(F)cc4F)c(F)c3)c2cc1OC [Ki 8751]	0.2 °C	
COc1cc2ncnc(Nc3cccc(Cl)c3)c2cc1OC [AG 1478]	0.3 °C	
CO[C@H]1C[C@@H]2CC[C@@H](C)[C@@](O)(O2)C(=O)C(=O)N2CCCC[C@H]2C(=O)O[C@H]([C@H](C)C[C@@H]2CC[C@@H](O)[C@H](OC)C2)CC(=O)[C@H](C)/C=C(\C)[C@@H](O)[C@@H](OC)C(=O)[C@H](C)C[C@H](C)/C=C/C=C/C=C/1C [Rapamycin]		0 °C
C[S+]([O-])c1ccc(-c2nc(-c3ccc(F)cc3)c(-c3ccncc3)[nH]2)cc1.Cl (centres unmarked) [SB 203580 hydrochloride]	0 °C	
c1nc2nc(Nc3ccc(N4CCOCC4)cc3)nc(NC3CCCCC3)c2[nH]1 [Reversine]		1.4 °C
PI 3-Kb Inhibitor II	0.2 °C	
Brc1c(Br)c(Br)c2[nH]nnc2c1Br [TBB, 4,5,6,7-Tetrabromobenzotriazole]	2.5 °C	
CS(=O)(=O)O.Cn1cc(C2=C(c3cn(CCCSC(=N)N)c4ccccc34)C(=O)NC2=O)c2ccccc21 [Ro 31-8220 mesylate]	1.5 °C	
Cl.O=S(=O)(c1cccc2c(I)cccc12)N1CCCNCC1 [ML-7, Hydrochloride]	0.3 °C	
Cl.O=S(=O)(c1cccc2c(Cl)cccc12)N1CCCNCC1 [ML 9 hydrochloride]	0.6 °C	
Nc1ncnc2c1cnn2-c1ccccc1 [PP3]	0.6 °C	
Cc1nc2cc3nc(-c4cccs4)cnc3cc2n1C [AGL 2043]	0 °C	
O=C(O)c1ccc2c3c1cccc3c(=O)n1c3ccccc3nc21 [STO-609]		0.2 °C
Cc1ccc2c(=O)c3ccccc3n(CCCN)c2c1C.O=C(O)/C=C\C(=O)O [ER 27319 maleate]	0.5 °C	
LY 364947	0.6 °C	
JAK3 Inhibitor II	0.8 °C	
COc1cc2ncnc(Nc3ccc(Cl)cc3F)c2cc1OC.Cl [ZM 306416 hydrochloride]	0 °C	

Compound	ΔTm	ΔTm at 20 µM
O=c1cc(N2CCNCC2)oc2c(-c3ccccc3)cccc12 [LY 303511]		0.1 °C
CC(=O)c1c(O)c(C)c(O)c(Cc2c(O)c3c(c(C(=O)/C=C/c4ccccc4)c2O)OC(C)(C)C=C3)c1O [Ro]lerin, 3'-[(8-Cinnamoyl-5,7-dihydroxy-2,2-dimethyl-2H-1-benzopyran-6-yl)methyl]-2',4',6'-trihydroxy-5'-methylacetophenone]		2.4 °C
O=C1NC(=O)C(=Cc2ccc(-c3ccc(F)cc3O)o2)S1 [PI 3-Kγ/CKII Inhibitor]	0.3 °C	
JAK3 Inhibitor IV	0.3 °C	
O=C(c1ccc(Nc2nccc(-c3cc4ccccc4s3)n2)cc1)N1CCC(N2CCCC2)CC1 [IKK 16]	1.5 °C	
JAK Inhibitor I	1.2 °C	
Nc1ncnc2c1c(I)cn2[C@@H]1O[C@H](CO)[C@@H](O)[C@H]1O [5-Iodotubercidin]	1.9 °C	
O=c1[nH]c2ccccc2n1C1CCN(Cc2ccc(-c3nc4cc5nc[nH]c5cc4nc3-c3ccccc3)cc2)CC1	0 °C	
CN1CCC(Nc2ncc3ncnc(Nc4ccc(F)c(Cl)c4)c3n2)CC1.Cl.Cl [BIBX 1382 dihydrochloride]	0.8 °C	
N#Cc1c(C2CCNCC2)cc(-c2c(O)cccc2OCC2CC2)nc1N [IKK-2 Inhibitor VIII]	1.9 °C	
O=C1NC(=O)c2c1c1c3ccccc3[nH]c1n1cncc21 [Isogranulajmide]		1 °C
CCCOc1ccc(/C=C2/SC(=O)NC2=O)cc1 [PIM1/2 Kinase Inhibitor VI]	0.2 °C	
N#C/C(=C(\N)Sc1ccc(N)cc1)c1ccccc1C(F)(F)F [SL 327]		0.5 °C
VEGF Receptor Tyrosine Kinase Inhibitor II	0.2 °C	
CNCCNS(=O)(=O)c1cccc2cnccc12.Cl.Cl [H-8, Dihydrochloride]	0.5 °C	
IGF-1R Inhibitor II	0 °C	
O=C1NC(=O)C(c2cn(CCCn3ccnc3)c3ccccc23)=C1Nc1ccccc1 [PKCb Inhibitor]	0.2 °C	
Cl.O=c1cc(N2CCOCC2)oc2c(-c3ccccc3)cccc12 [LY 294002 hydrochloride]	0.8 °C	
O=C1Cc2c([nH]c3ccc(Br)cc23)-c2ncccc2N1 [1-Azakenpaullone]	0.6 °C	
CCCCCCCCCCCCCCCCn1cc[n+](Cc2ccccc2)c1C.[I-] [eEF-2 Kinase Inhibitor, NH125]	0 °C	
CCCCCCOC(=O)[C@]1(O)C[C@@H]2O[C@@]1(C)n1c3ccccc3c3c4c(c5c6ccccc6n2c5c31)C(=O)NC4 [KT5720]	0.2 °C	
KN-62	0.7 °C	
Cc1cc(C(C)Nc2ccccc2)c2nc(N3CCOCC3)cc(=O)n2c1 (centres unmarked) [PI 3-Kβ Inhibitor VI, TGX-221]	0 °C	
O=C1Nc2ccc(I)cc2/C1=C1/Nc2ccccc2/C1=N\O [Indirubin-3'-monoxime, 5-Iodo-]	0.5 °C	
PP1 Analog II, 1NM-PP1	0.2 °C	

Same assay, conditions: library screen, 20 µM compound; 20 µM

Compound	ΔTm
Cl.Cl.O=S(=O)(NCCNC/C=C/c1ccc(Br)cc1)c1cccc2cnccc12 [H 89 dihydrochloride]	0.3 °C
Nc1ncnc2n[nH]c(Nc3ccc(F)cc3)c12 [CGP 57380]	0.5 °C
O=c1cc(N2CCOCC2)oc2c1ccc1ccccc12 [DNA-PK Inhibitor II]	1 °C
Nc1[nH]nc2nc3ccccc3nc12 [NSC 693868]	0.2 °C
O=C(NC(NC(=S)Nc1ccc(F)c([N+](=O)[O-])c1)C(Cl)(Cl)Cl)C(c1ccccc1)c1ccccc1 (centres unmarked) [CGK 733]	0.2 °C
CN(C)c1ccc(/C=C2\C(=O)Nc3ccccc32)cc1 [SU 4312]	0.2 °C

Same assay, conditions: titration across a 200-fold range of inhibitor concentrations

Compound	ΔTm profile
O=c1c(-c2ccc(O)cc2)coc2cc(O)cc(O)c12 [Genistein, 5,7-Dihydroxy-3-(4-hydroxyphenyl)-4H-1-benzopyran-4-one]	increased ΔTm at lower inhibitor concentrations and then decreased ΔTm at 5, 10 and 20 µM concentrations

From paper PMC4239038, “The Potent Cdc7-Dbf4 (DDK) Kinase Inhibitor XL413 Has Limited Activity in Many Cancer Cell Lines and Discovery of Potential New DDK Inhibitor Scaffolds” (PLoS ONE, 2014)
